pIC50: −log10 of the molar value. Each block holds one compound with its values, some of them ahead of it.
Tested on: 292921-168-R-J2-PDC complex spheroid growth
Test: Anticancer human tumor 292921-168-R-J2-PDC patient-derived pancreatic carcinoma cell line growth inhibition [AhR]
Settings: for pIC50: curve of first compound; for viability, T/C: stronger effect = lower value
Procedure, shortened: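 Agents were dosed in half-log steps down from roughly clinical Cmax, or from 10 microM where Cmax was unknown, alone and with AhR antagonists. Read-out: percent test/control growth of tumor spheroids containing HUVEC and MSC stromal cells.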

[1] = second compound 0.1 µM, first compound 0.0316 µM
[2] = second compound 0.1 µM, first compound 0.1 µM
[3] = second compound 0.1 µM, first compound 0.316 µM
[4] = second compound 0.1 µM, first compound 1 µM
[5] = second compound 0.1 µM, first compound 3.16 µM
[6] = second compound 0.1 µM, first compound 10 µM
[7] = second compound 0.316 µM, first compound 0.0316 µM
[8] = second compound 0.316 µM, first compound 0.1 µM
[9] = second compound 0.316 µM, first compound 0.316 µM
[10] = second compound 0.316 µM, first compound 1 µM
[11] = second compound 0.316 µM, first compound 3.16 µM
[12] = second compound 0.316 µM, first compound 10 µM
[13] = second compound 1 µM, first compound 0.0316 µM
[14] = second compound 1 µM, first compound 0.1 µM
[15] = second compound 1 µM, first compound 0.316 µM
[16] = second compound 1 µM, first compound 1 µM
[17] = second compound 1 µM, first compound 3.16 µM
[18] = second compound 1 µM, first compound 10 µM
[19] = second compound 3.16 µM, first compound 0.0316 µM
[20] = second compound 3.16 µM, first compound 0.1 µM
[21] = second compound 3.16 µM, first compound 0.316 µM
[22] = second compound 3.16 µM, first compound 1 µM
[23] = second compound 3.16 µM, first compound 3.16 µM
[24] = second compound 3.16 µM, first compound 10 µM
[25] = second compound 10 µM, first compound 0.0316 µM
[26] = second compound 10 µM, first compound 0.1 µM
[27] = second compound 10 µM, first compound 0.316 µM
[28] = second compound 10 µM, first compound 1 µM
[29] = second compound 10 µM, first compound 3.16 µM
[30] = second compound 10 µM, first compound 10 µM
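Note: spheroids exposed to compounds for seven days after three days of growth.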

- pIC50 (second compound 0.1 µM): 5.16
- pIC50 (second compound 0.316 µM): 5.17
- pIC50 (second compound 1 µM): 5.17
- pIC50 (second compound 3.16 µM): 5.25
- pIC50 (second compound 10 µM): 5.48
Structure (SMILES): CC1(C)CCC(CN2CCN(c3ccc(C(=O)NS(=O)(=O)c4ccc(NCC5CCOCC5)c([N+](=O)[O-])c4)c(Oc4cnc5[nH]ccc5c4)c3)CC2)=C(c2ccc(Cl)cc2)C1 + Cc1cncc(-c2nc(NCCc3c[nH]c4ccccc34)c3ncn(C(C)C)c3n2)c1
- viability, T/C [1]: 101%
- viability, T/C [2]: 96.2%
- viability, T/C [3]: 92.9%
- viability, T/C [4]: 105%
- viability, T/C [5]: 99.4%
- viability, T/C [6]: 26.2%
- viability, T/C [7]: 96.6%
- viability, T/C [8]: 104%
- viability, T/C [9]: 105%
- viability, T/C [10]: 90.6%
- viability, T/C [11]: 95.1%
- viability, T/C [12]: 26.1%
- viability, T/C [13]: 80.2%
- viability, T/C [14]: 91.7%
- viability, T/C [15]: 90.1%
- viability, T/C [16]: 96.5%
- viability, T/C [17]: 102%
- viability, T/C [18]: 28.6%
- viability, T/C [19]: 67.9%
- viability, T/C [20]: 76.3%
- viability, T/C [21]: 80.6%
- viability, T/C [22]: 77.6%
- viability, T/C [23]: 79.7%
- viability, T/C [24]: 22.3%
- viability, T/C [25]: 54.9%
- viability, T/C [26]: 52.7%
- viability, T/C [27]: 52.9%
- viability, T/C [28]: 50%
- viability, T/C [29]: 51.4%
- viability, T/C [30]: 26.8%

- pIC50 (second compound 0.1 µM): < 5.52
- pIC50 (second compound 0.316 µM): < 5.52
- pIC50 (second compound 1 µM): < 5.52
- pIC50 (second compound 3.16 µM): < 5.52
- pIC50 (second compound 10 µM): 7.47
Structure (SMILES): CCN(c1cc(-c2ccc(CN3CCOCC3)cc2)cc(C(=O)NCc2c(C)cc(C)[nH]c2=O)c1C)C1CCOCC1 + Cc1cncc(-c2nc(NCCc3c[nH]c4ccccc34)c3ncn(C(C)C)c3n2)c1
- viability, T/C (second compound 0.1 µM, first compound 0.00949 µM): 93.8%
- viability, T/C (second compound 0.1 µM, first compound 0.03 µM): 94.5%
- viability, T/C (second compound 0.1 µM, first compound 0.0949 µM): 92.7%
- viability, T/C (second compound 0.1 µM, first compound 0.3 µM): 84.9%
- viability, T/C (second compound 0.1 µM, first compound 0.949 µM): 82.7%
- viability, T/C (second compound 0.1 µM, first compound 3 µM): 67.3%
- viability, T/C (second compound 0.316 µM, first compound 0.00949 µM): 94.7%
- viability, T/C (second compound 0.316 µM, first compound 0.03 µM): 91.1%
- viability, T/C (second compound 0.316 µM, first compound 0.0949 µM): 90%
- viability, T/C (second compound 0.316 µM, first compound 0.3 µM): 77.6%
- viability, T/C (second compound 0.316 µM, first compound 0.949 µM): 78.5%
- viability, T/C (second compound 0.316 µM, first compound 3 µM): 83.3%
- viability, T/C (second compound 1 µM, first compound 0.00949 µM): 87.2%
- viability, T/C (second compound 1 µM, first compound 0.03 µM): 88.8%
- viability, T/C (second compound 1 µM, first compound 0.0949 µM): 84.9%
- viability, T/C (second compound 1 µM, first compound 0.3 µM): 76.4%
- viability, T/C (second compound 1 µM, first compound 0.949 µM): 75.4%
- viability, T/C (second compound 1 µM, first compound 3 µM): 75.8%
- viability, T/C (second compound 3.16 µM, first compound 0.00949 µM): 64.4%
- viability, T/C (second compound 3.16 µM, first compound 0.03 µM): 66.7%
- viability, T/C (second compound 3.16 µM, first compound 0.0949 µM): 73.2%
- viability, T/C (second compound 3.16 µM, first compound 0.3 µM): 64.2%
- viability, T/C (second compound 3.16 µM, first compound 0.949 µM): 62.8%
- viability, T/C (second compound 3.16 µM, first compound 3 µM): 52.7%
- viability, T/C (second compound 10 µM, first compound 0.00949 µM): 49.2%
- viability, T/C (second compound 10 µM, first compound 0.03 µM): 49.6%
- viability, T/C (second compound 10 µM, first compound 0.0949 µM): 52.7%
- viability, T/C (second compound 10 µM, first compound 0.3 µM): 49.3%
- viability, T/C (second compound 10 µM, first compound 0.949 µM): 41.1%
- viability, T/C (second compound 10 µM, first compound 3 µM): 45.3%

- pIC50 (second compound 0.1 µM): < 7.00
- pIC50 (second compound 0.316 µM): < 7.00
- pIC50 (second compound 1 µM): < 7.00
- pIC50 (second compound 3.16 µM): < 7.00
- pIC50 (second compound 10 µM): 7.45
Structure (SMILES): Cn1ncnc1C1c2n[nH]c(=O)c3cc(F)cc(c23)NC1c1ccc(F)cc1 (stereo not given) + Cc1cncc(-c2nc(NCCc3c[nH]c4ccccc34)c3ncn(C(C)C)c3n2)c1
- viability, T/C (second compound 0.1 µM, first compound 0.000316 µM): 94.3%
- viability, T/C (second compound 0.1 µM, first compound 0.001 µM): 96.7%
- viability, T/C (second compound 0.1 µM, first compound 0.00316 µM): 86.5%
- viability, T/C (second compound 0.1 µM, first compound 0.01 µM): 95.5%
- viability, T/C [1]: 83.9%
- viability, T/C [2]: 82.6%
- viability, T/C (second compound 0.316 µM, first compound 0.000316 µM): 91.4%
- viability, T/C (second compound 0.316 µM, first compound 0.001 µM): 102%
- viability, T/C (second compound 0.316 µM, first compound 0.00316 µM): 83.6%
- viability, T/C (second compound 0.316 µM, first compound 0.01 µM): 89.2%
- viability, T/C [7]: 83.7%
- viability, T/C [8]: 76.7%
- viability, T/C (second compound 1 µM, first compound 0.000316 µM): 80.8%
- viability, T/C (second compound 1 µM, first compound 0.001 µM): 87.3%
- viability, T/C (second compound 1 µM, first compound 0.00316 µM): 85.6%
- viability, T/C (second compound 1 µM, first compound 0.01 µM): 73.8%
- viability, T/C [13]: 74.5%
- viability, T/C [14]: 81.9%
- viability, T/C (second compound 3.16 µM, first compound 0.000316 µM): 68.7%
- viability, T/C (second compound 3.16 µM, first compound 0.001 µM): 71.4%
- viability, T/C (second compound 3.16 µM, first compound 0.00316 µM): 72.3%
- viability, T/C (second compound 3.16 µM, first compound 0.01 µM): 56.2%
- viability, T/C [19]: 60.1%
- viability, T/C [20]: 66.2%
- viability, T/C (second compound 10 µM, first compound 0.000316 µM): 50.8%
- viability, T/C (second compound 10 µM, first compound 0.001 µM): 54.4%
- viability, T/C (second compound 10 µM, first compound 0.00316 µM): 55.5%
- viability, T/C (second compound 10 µM, first compound 0.01 µM): 52.5%
- viability, T/C [25]: 47.7%
- viability, T/C [26]: 48%

- pIC50 (second compound 0.1 µM): 6.64
- pIC50 (second compound 0.316 µM): 6.65
- pIC50 (second compound 1 µM): 6.64
- pIC50 (second compound 3.16 µM): 6.64
- pIC50 (second compound 10 µM): 6.66
Structure (SMILES): NS(=O)(=O)OCC1CC(n2ccc3c(NC4CCc5ccccc54)ncnc32)CC1O (stereo not given) + Cc1cncc(-c2nc(NCCc3c[nH]c4ccccc34)c3ncn(C(C)C)c3n2)c1
- viability, T/C [1]: 136%
- viability, T/C [2]: 111%
- viability, T/C [3]: 25.1%
- viability, T/C [4]: 6.77%
- viability, T/C [5]: 5.38%
- viability, T/C [6]: 5.4%
- viability, T/C [7]: 133%
- viability, T/C [8]: 108%
- viability, T/C [9]: 25.1%
- viability, T/C [10]: 7.33%
- viability, T/C [11]: 5.81%
- viability, T/C [12]: 5.63%
- viability, T/C [13]: 117%
- viability, T/C [14]: 104%
- viability, T/C [15]: 30%
- viability, T/C [16]: 6.44%
- viability, T/C [17]: 6.99%
- viability, T/C [18]: 7.06%
- viability, T/C [19]: 111%
- viability, T/C [20]: 93.7%
- viability, T/C [21]: 33.1%
- viability, T/C [22]: 8.82%
- viability, T/C [23]: 7.53%
- viability, T/C [24]: 6.05%
- viability, T/C [25]: 69.9%
- viability, T/C [26]: 76.7%
- viability, T/C [27]: 39.5%
- viability, T/C [28]: 13%
- viability, T/C [29]: 9.88%
- viability, T/C [30]: 7.28%

Source: PubChem BioAssay AID1918994 (Molecular Pharmacology Branch, DTP, NCI, 2023)
